Reference: BindingDB's records for doi:10.1016/j.bmcl.2009.02.053 (University of Warsaw, 2009)

What was measured:
[1] = molecular target: T1, Eukaryotic translation initiation factor 4E (Oryctolagus cuniculus, UniProt P29338); test: Inhibition of eukaryotic initiation factor 4E in micrococcal nuclease-pretreated rabbit reticulocyte lysate assessed as inhibition of m7,3'-O-GpppG-capped 5'UTRbetaglob-LUC mRNA translation by luciferase-based luminometry
[2] = molecular target: T1, Eukaryotic translation initiation factor 4E; test: Inhibition of eukaryotic initiation factor 4E in micrococcal nuclease-pretreated rabbit reticulocyte lysate assessed as inhibition of m7,3'-O-GpppG-capped 5'UTRbetaglob-LUC mRNA translation treated 60 mins before mRNA addition by luciferase-based luminometry

T1 sequence (P29338 whole entry): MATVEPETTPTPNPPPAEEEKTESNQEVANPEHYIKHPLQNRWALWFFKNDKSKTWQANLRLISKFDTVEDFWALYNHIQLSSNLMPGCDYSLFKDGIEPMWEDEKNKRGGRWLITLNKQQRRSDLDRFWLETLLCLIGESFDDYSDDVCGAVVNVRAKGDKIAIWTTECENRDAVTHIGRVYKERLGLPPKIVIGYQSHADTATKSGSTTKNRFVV

Question: `C[n+]1cn(C2OC(COP(=O)(S)OP(=O)(O)OP(=O)(O)O)C(O)C2O)c2nc(N)[n-]c(=O)c21` [2-amino-9-[(2R,3R,4S,5R)-3,4-dihydroxy-5-{[({[(phosphonatooxy)phosphinato]oxy}(sulfanidyl)phosphoryl)oxy]methyl}oxolan-2-yl]-7-methyl-6-oxido-9H-purin-7-ium] was tested. Which IC50 [1] did it give?
Answer: Its IC50 is 1440 nM.

Question: What about the IC50 [2] of the same compound?
Answer: Its IC50 is 1300 nM.
